Measurements as given in ChEMBL document CHEMBL3352405, “Design and synthesis of sulfamoyl benzoic acid analogues with subnanomolar agonist activity specific to the LPA2 receptor” (J Med Chem, 2014).

Assays:
[1] = biological target: T1, Lysophosphatidic acid receptor 2 (Homo sapiens, UniProt Q9HBW0); test: Agonist activity at human LPA2 expressed in LPA1xLPA2 double knockout mouse MEF cells by Fura-2AM dye based Ca2+ mobilization assay; assay type: functional, cell-based
[2] = biological target: T1, Lysophosphatidic acid receptor 2; test: Agonist activity at human LPA2 expressed in LPA1xLPA2 double knockout mouse MEF cells by Fura-2AM dye based Ca2+ mobilization assay relative to LPA 18:1; assay type: functional, cell-based
[3] = biological target: Lysophosphatidic acid receptor 1 (Homo sapiens, UniProt Q92633); test: Agonist activity at human LPA1 expressed in RH7777 cells up to 10 uM by Fura-2AM dye based Ca2+ mobilization assay
Chain of Lysophosphatidic acid receptor 1 (Q92633 whole entry): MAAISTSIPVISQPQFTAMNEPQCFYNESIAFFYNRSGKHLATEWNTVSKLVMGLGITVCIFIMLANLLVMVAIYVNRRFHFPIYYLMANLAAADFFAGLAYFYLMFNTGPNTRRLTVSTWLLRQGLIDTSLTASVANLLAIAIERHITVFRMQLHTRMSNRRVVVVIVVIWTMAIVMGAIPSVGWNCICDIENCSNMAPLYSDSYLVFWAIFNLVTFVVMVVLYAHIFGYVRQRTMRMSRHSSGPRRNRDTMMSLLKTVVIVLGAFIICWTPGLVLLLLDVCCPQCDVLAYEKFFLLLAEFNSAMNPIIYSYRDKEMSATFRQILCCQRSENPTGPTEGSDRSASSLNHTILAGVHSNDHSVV

[4] = biological target: T2, Lysophosphatidic acid receptor 3 (Homo sapiens, UniProt Q9UBY5); test: Antagonist activity at human LPA3 expressed in RH7777 cells assessed as reduction in […]-induced calcium mobilization by Fura-2AM dye based Ca2+ mobilization assay
T2 sequence (Q9UBY5 whole entry): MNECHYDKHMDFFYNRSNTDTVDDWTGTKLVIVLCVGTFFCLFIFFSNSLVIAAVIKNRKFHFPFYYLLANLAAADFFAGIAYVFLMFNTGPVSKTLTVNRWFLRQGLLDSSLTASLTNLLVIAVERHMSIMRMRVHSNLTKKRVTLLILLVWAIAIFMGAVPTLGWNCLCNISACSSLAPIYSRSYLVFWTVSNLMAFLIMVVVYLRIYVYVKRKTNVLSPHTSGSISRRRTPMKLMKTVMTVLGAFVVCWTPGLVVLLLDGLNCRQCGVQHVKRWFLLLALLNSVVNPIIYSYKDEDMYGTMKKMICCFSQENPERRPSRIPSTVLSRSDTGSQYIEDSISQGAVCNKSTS

T1 sequence (Q9HBW0 whole entry): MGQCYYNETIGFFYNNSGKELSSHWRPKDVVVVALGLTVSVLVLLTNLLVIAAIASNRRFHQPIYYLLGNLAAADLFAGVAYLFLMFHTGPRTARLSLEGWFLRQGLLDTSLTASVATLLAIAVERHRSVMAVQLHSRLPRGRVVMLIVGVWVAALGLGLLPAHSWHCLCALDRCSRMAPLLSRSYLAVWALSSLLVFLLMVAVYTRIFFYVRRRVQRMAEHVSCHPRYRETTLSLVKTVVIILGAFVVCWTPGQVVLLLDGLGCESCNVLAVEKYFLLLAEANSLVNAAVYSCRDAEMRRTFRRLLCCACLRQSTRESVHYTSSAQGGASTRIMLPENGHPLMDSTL

EC50 [1]	Emax [2]	EC50 [3]	IC50 [4]	Structure (SMILES)
60 nM	104%	–	–	O=C(O)c1cc(Br)ccc1S(=O)(=O)NCCCCN1C(=O)c2cccc3cccc(c23)C1=O
50 nM	100%	–	–	O=C(O)c1ccc(Br)cc1S(=O)(=O)NCCCCN1C(=O)c2cccc3cccc(c23)C1=O
–	100%	–	–	O=C(O)c1ccc2c(c1)S(=O)(=O)N(CCCCN1C(=O)c3cccc4cccc(c34)C1=O)C2=O
2160 nM	–	–	–	O=C(O)c1ccccc1S(=O)(=O)NCCCN1C(=O)c2cccc3cccc(c23)C1=O
–	124%	–	–	O=C(O)c1cc(Cl)ccc1S(=O)(=O)NCCCCN1C(=O)c2cccc3cccc(c23)C1=O
1420 nM	100%	–	–	O=C(O)c1ccccc1S(=O)(=O)NCCCCCN1C(=O)c2cccc3cccc(c23)C1=O
–	–	350 nM	–	CCCCCCCC/C=C\CCCCCCCC(=O)OC[C@@H](O)COP(=O)(O)O [LYSOPHOSPHATIDIC ACID]
–	75%	–	6600 nM	O=C(O)c1ccccc1SCCCN1C(=O)c2cccc3cccc(c23)C1=O
0.15 nM	119%	–	–	O=C(O)c1cc(F)ccc1S(=O)(=O)NCCCCN1C(=O)c2cccc3cccc(c23)C1=O
110 nM	100%	–	–	O=C(O)c1ccccc1S(=O)(=O)NCCCCN1C(=O)c2cccc3cccc(c23)C1=O
